# Assay results as given in patent US6346540B1, “1-(1,2-disubstituted pipeidinyl)-4-substituted piperidine derivatives” (Janssen Pharmaceutica N.V., priority 1995, dated 2002).
# Assays:
# guinea-pigs = test: Antagonism of substance P induced plasma extravasation in guinea-pigs; format: in vivo; conditions: lowest active dose, compound given 1 hour prior to substance P, female guinea-pigs; for LAD conjunctiva / LAD forepaws / LAD nose: 10 minutes after challenge; for LAD trachea / LAD urinary bladder: 30 minutes after challenge
# Description: Antagonism of Substance P Induced Plasma Extravasation in Guinea-pigs
# Plasma extravasation was induced by injection of substance P (2 mg/kg) in the femoral artery of female guinea-pigs. Evans Blue dye (30 mg/kg) was injected simultaneously. The test compound or solvent was administered 1 hour prior to substance P injection. 10 minutes after challenge, the animals were checked for blue colouring (a direct measure for plasma extravasation) of the nose, the forepaws, and the conjunctiva. 30 minutes after challenge, the animals were sacrificed by CO2 gas inhalation and checked for blue coloring of the trachea and the urinary bladder. […]
melting point [°C],Compound,LAD conjunctiva (guinea-pigs) [mg/kg],LAD forepaws (guinea-pigs) [mg/kg],LAD nose (guinea-pigs) [mg/kg],LAD trachea (guinea-pigs) [mg/kg],LAD urinary bladder (guinea-pigs) [mg/kg]
259.1,Cc1cc(C)cc(C(=O)N2CC[C@H](N3CCC(C(=O)O)(c4ccccc4)CC3)C[C@@H]2Cc2ccccc2)c1 (racemic),–,–,–,–,–
121.1,"Cc1cc(C)cc(C(=O)N2CC[C@H](N3CCC(NC(=O)c4ccccc4N)CC3)C[C@@H]2Cc2ccccc2)c1 (racemic) [Compound 24, (±)-cis-2-amino-N-[1-[1-(3,5-dimethylbenzoyl)-2-(phenylmethyl)-4-piperidinyl]-4-piperidinyl]benzamide]",–,–,–,–,–
67.8,"Cc1cc(C)cc(C(=O)N2CC[C@@H](N3CCC(NCCc4ccccc4)CC3)C[C@@H]2Cc2ccccc2)c1 (racemic) [Compound 27, (±)-trans-1-(3,5-dimethylbenzoyl)-4-[4-[(2-phenylethyl)amino]-1-piperidinyl]-2-(phenylmethyl)piperidine]",–,–,–,–,–

# Further lines, the compound ahead of its results:
Compound,melting point [°C],LAD conjunctiva (guinea-pigs) [mg/kg],LAD forepaws (guinea-pigs) [mg/kg],LAD nose (guinea-pigs) [mg/kg],LAD trachea (guinea-pigs) [mg/kg],LAD urinary bladder (guinea-pigs) [mg/kg]
"COc1ccccc1C1(O)CCN([C@@H]2CCN(C(=O)c3cc(C)cc(C)c3)[C@@H](Cc3ccccc3)C2)CC1 (racemic) [Compound 17, (±)-trans-1-(3,5-dimethylbenzoyl)-4-[4-hydroxy-4-(2-methoxyphenyl)-1-piperidinyl]-2-(phenyl-methyl)piperidine]",213.1,–,–,–,–,–
"O=C(c1cc(C(F)(F)F)cc(C(F)(F)F)c1)N1CC[C@@H](N2CCC(n3c(=O)[nH]c4ccccc43)CC2)C[C@@H]1Cc1ccccc1 (racemic) [Compound 43, (±)-trans-1-[3,5-bis(trifluoromethyl)benzoyl]-4-[4-(2,3-dihydro-2-oxo-1H-benzimidazol-1-yl)-1-piperidinyl]-2-(phenylmethyl)piperidine]",156.1,2.5,2.5,2.5,10,10
"O=C(c1cc(C(F)(F)F)cc(C(F)(F)F)c1)N1CC[C@@H](N2CCC(C(=O)N3CCCC3)(c3ccccc3)CC2)C[C@@H]1Cc1ccc(C(F)(F)F)cc1 (racemic) [Compound 112, (±)-trans-1-[3,5-bis(trifluoromethyl)benzoyl]-4-[4-phenyl-4-(1-pyrrolidinylcarbonyl)-1-piperidinyl]-2-[[4-(trifluoromethyl)phenyl]methyl]-piperidine]",–,2.5,2.5,2.5,2.5,2.5
"Cc1cc(C)cc(C(=O)N2CC[C@@H](N3CCC(OC(=O)c4cc(Cl)cc(Cl)c4)CC3)C[C@@H]2Cc2ccccc2)c1 (racemic) [Compound 33, (±)-trans-1-[1-(3,5-dimethylbenzoyl)-2-(phenylmethyl)-4-piperidinyl]-4-piperidinyl 3,5-dichloro-benzoate]",83.3,–,–,–,–,–
